# Reference: ChEMBL document CHEMBL1201862, “PubChem BioAssay data set” (2004)
#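 Briefly, cells in 96-well plates were exposed to five compound concentrations for 48 h, and endpoints were estimated by linear interpolation. GI50 = concentration required for 50% inhibition of growth.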 Activity calls are given as the source filed them. Rule as the data show it: active = GI50 up to about 1.1 µM and inactive = higher.
# Columns and labels:
# Test in all cases: NCI-60 cell line screen, 48 h
# [1] = tested on: ACHN
# [2] = tested on: CAKI-1
# [3] = tested on: COLO 205
# [4] = tested on: HCT-15
# [5] = tested on: HL-60
# [6] = tested on: HOP-92
# [7] = tested on: KM12
# [8] = tested on: OVCAR-4
# [9] = tested on: OVCAR-5
# [10] = tested on: OVCAR-8
# [11] = tested on: PC-3
# [12] = tested on: RPMI-8226
# [13] = tested on: SK-MEL-28
# [14] = tested on: SK-MEL-2
# [15] = tested on: SK-MEL-5
# [16] = tested on: SK-OV-3
# [17] = tested on: SNB-19
# [18] = tested on: U-251
# [19] = tested on: UACC-257
# [20] = tested on: UACC-62
Compound,GI50 [1],GI50 [2],GI50 [3],GI50 [4] [µM],GI50 [5],GI50 [6],GI50 [7],GI50 [8],GI50 [9],GI50 [10],GI50 [11],GI50 [12],GI50 [13],GI50 [14],GI50 [15],GI50 [16],GI50 [17],GI50 [18],GI50 [19],GI50 [20]
O=S(=O)(c1ccc(Br)cc1)N1CCN(S(=O)(=O)c2ccc(Br)cc2)CC1,> 100 µM (inactive),> 100 µM (inactive),> 100 µM (inactive),> 100,> 100 µM (inactive),> 100 µM (inactive),> 100 µM (inactive),> 100 µM (inactive),> 100 µM (inactive),> 100 µM (inactive),> 100 µM (inactive),> 100 µM (inactive),> 100 µM (inactive),> 100 µM (inactive),> 100 µM (inactive),> 100 µM (inactive),> 100 µM (inactive),> 100 µM (inactive),> 100 µM (inactive),> 100 µM (inactive)
C/C(=N\Nc1cc(CN2CCCC2)c(-c2ccc(Cl)cc2)nn1)C(=O)O,> 100 µM (inactive),> 100 µM (inactive),> 100 µM (inactive),> 100,> 100 µM (inactive),> 100 µM (inactive),> 100 µM (inactive),> 100 µM (inactive),> 100 µM (inactive),> 100 µM (inactive),> 100 µM (inactive),> 100 µM (inactive),> 100 µM (inactive),> 100 µM (inactive),> 100 µM (inactive),> 100 µM (inactive),> 100 µM (inactive),> 100 µM (inactive),> 100 µM (inactive),> 100 µM (inactive)
O=c1ccc(=O)c2c1c1[nH]c3ccccc3c1c1c(=O)c3ccccc3c(=O)c21,> 10 µM (inactive),6.71 µM (inactive),> 10 µM (inactive),> 10,3.85 µM (inactive),0.333 µM (active),> 10 µM (inactive),> 10 µM (inactive),> 10 µM (inactive),> 10 µM (inactive),> 10 µM (inactive),> 10 µM (inactive),> 10 µM (inactive),> 10 µM (inactive),> 10 µM (inactive),> 10 µM (inactive),> 10 µM (inactive),> 10 µM (inactive),> 10 µM (inactive),> 10 µM (inactive)
O=C(O)c1cc(/N=C/c2ccccc2O)cc(C(=O)O)c1,> 100 µM (inactive),> 100 µM (inactive),> 100 µM (inactive),> 100,> 100 µM (inactive),> 100 µM (inactive),> 100 µM (inactive),> 100 µM (inactive),> 100 µM (inactive),> 100 µM (inactive),> 100 µM (inactive),> 100 µM (inactive),> 100 µM (inactive),> 100 µM (inactive),> 100 µM (inactive),> 100 µM (inactive),> 100 µM (inactive),> 100 µM (inactive),> 100 µM (inactive),> 100 µM (inactive)
c1ccc(COC[C@H]2C3OCC([C@H](OCc4ccccc4)[C@H]3OCc3ccccc3)N2Cc2ccccc2)cc1 (stereo not given in full),> 56.2 µM (inactive),> 53.7 µM (inactive),> 57 µM (inactive),> 45.8,8.41 µM (inactive),> 57.1 µM (inactive),25.3 µM (inactive),40 µM (inactive),> 52.4 µM (inactive),> 50 µM (inactive),20.2 µM (inactive),15.8 µM (inactive),> 53.2 µM (inactive),> 49.2 µM (inactive),30.8 µM (inactive),> 56.4 µM (inactive),> 49.3 µM (inactive),26.2 µM (inactive),49 µM (inactive),29.7 µM (inactive)
CCCCCCCCCCCCCCCCCCNc1ccn(C2OC(CO)C(OP(=O)(O)OCC(O)COP(=O)(O)OCC3OC(n4cc(F)c(NCCCCCCCCCCCCCCCCCC)nc4=O)CC3O)C2O)c(=O)n1 (stereo not given),> 50 µM (inactive),> 50 µM (inactive),> 50 µM (inactive),> 50,> 50 µM (inactive),> 50 µM (inactive),> 50 µM (inactive),> 50 µM (inactive),> 50 µM (inactive),> 50 µM (inactive),> 50 µM (inactive),> 50 µM (inactive),> 50 µM (inactive),> 50 µM (inactive),> 50 µM (inactive),> 50 µM (inactive),> 50 µM (inactive),> 50 µM (inactive),> 50 µM (inactive),> 50 µM (inactive)
O=C(/C=C/c1ccccc1)CCN1CCCCC1,84.7 µM (inactive),87.9 µM (inactive),18 µM (inactive),22.6,29.4 µM (inactive),> 100 µM (inactive),28.5 µM (inactive),53 µM (inactive),> 100 µM (inactive),18.5 µM (inactive),52.7 µM (inactive),14.7 µM (inactive),24.2 µM (inactive),> 100 µM (inactive),32.8 µM (inactive),75 µM (inactive),> 100 µM (inactive),23.6 µM (inactive),37.4 µM (inactive),55.2 µM (inactive)
